From the NIST ThermoML archive (doi:10.1016/j.fluid.2016.08.002)

Experiment: xn = mol fraction of the nth substance listed
Conditions: Gas, Vibrating tube method

S [hydrogen sulfide] + C
Conditions	mass density [kg/m3]
253.4 K, 9215 kPa, x2 = 0.8685	128.92
253.4 K, 9484 kPa, x2 = 0.8685	135.48
253.41 K, 10167 kPa, x2 = 0.8685	150.17
253.42 K, 10405 kPa, x2 = 0.8685	155.11
253.42 K, 10879 kPa, x2 = 0.8685	164.94
253.42 K, 11161 kPa, x2 = 0.8685	170.62
253.43 K, 9711 kPa, x2 = 0.8685	140.67
253.43 K, 9944 kPa, x2 = 0.8685	145.46
253.44 K, 10674 kPa, x2 = 0.8685	160.71
253.45 K, 11408 kPa, x2 = 0.8685	175.6
253.45 K, 12503 kPa, x2 = 0.8685	195.9
253.46 K, 11691 kPa, x2 = 0.8685	181.06
253.46 K, 11951 kPa, x2 = 0.8685	186.09
253.46 K, 12221 kPa, x2 = 0.8685	190.99
253.46 K, 12710 kPa, x2 = 0.8685	199.55
253.47 K, 13026 kPa, x2 = 0.8685	204.72
253.48 K, 13361 kPa, x2 = 0.8685	209.99
253.49 K, 13557 kPa, x2 = 0.8685	213.18
253.5 K, 13904 kPa, x2 = 0.8685	217.77
253.53 K, 14217 kPa, x2 = 0.8685	222.31
253.53 K, 14605 kPa, x2 = 0.8685	227.86
253.53 K, 27036 kPa, x2 = 0.8685	316.4
253.54 K, 15328 kPa, x2 = 0.8685	236.23
253.56 K, 16209 kPa, x2 = 0.8685	246.09
253.56 K, 23487 kPa, x2 = 0.8685	300.68
253.57 K, 26154 kPa, x2 = 0.8685	313.25
253.58 K, 16612 kPa, x2 = 0.8685	250.04
253.59 K, 17129 kPa, x2 = 0.8685	255.23
253.6 K, 17589 kPa, x2 = 0.8685	259.35
253.61 K, 18036 kPa, x2 = 0.8685	263.28
253.61 K, 18480 kPa, x2 = 0.8685	267.15
253.62 K, 18822 kPa, x2 = 0.8685	269.8
253.63 K, 19390 kPa, x2 = 0.8685	274.47
253.64 K, 19853 kPa, x2 = 0.8685	277.53
253.66 K, 21081 kPa, x2 = 0.8685	286.3
253.66 K, 21605 kPa, x2 = 0.8685	289.87
253.67 K, 22087 kPa, x2 = 0.8685	292.82
253.68 K, 22512 kPa, x2 = 0.8685	295.31
253.68 K, 22918 kPa, x2 = 0.8685	297.52
253.72 K, 26573 kPa, x2 = 0.8685	314.9
272.97 K, 448 kPa, x2 = 0.714	4.32
272.98 K, 925 kPa, x2 = 0.714	9.1
272.98 K, 1959 kPa, x2 = 0.714	21.08
272.99 K, 1499 kPa, x2 = 0.714	15.62
272.99 K, 2470 kPa, x2 = 0.714	27.39
272.99 K, 15974 kPa, x2 = 0.714	304.94
272.99 K, 16531 kPa, x2 = 0.714	310.78
273 K, 5009 kPa, x2 = 0.714	66.37
273 K, 13055 kPa, x2 = 0.714	265.48
273 K, 13551 kPa, x2 = 0.714	273.7
273 K, 14019 kPa, x2 = 0.714	280.64
273 K, 14532 kPa, x2 = 0.714	287.5
273 K, 15457 kPa, x2 = 0.714	298.99
273.01 K, 12511 kPa, x2 = 0.714	252.68
273.01 K, 14977 kPa, x2 = 0.714	293.17
273.02 K, 4006 kPa, x2 = 0.714	49.21
273.02 K, 4495 kPa, x2 = 0.714	57.7
273.02 K, 5020 kPa, x2 = 0.8197	51.69
273.03 K, 5418 kPa, x2 = 0.714	73.5
273.03 K, 16977 kPa, x2 = 0.714	315.19
273.03 K, 29571 kPa, x2 = 0.714	387.72
273.03 K, 30070 kPa, x2 = 0.714	389.49
273.04 K, 220 kPa, x2 = 0.8197	1.87
273.04 K, 5526 kPa, x2 = 0.8197	58.55
273.05 K, 512 kPa, x2 = 0.8197	4.39
273.05 K, 6060 kPa, x2 = 0.8197	66.2
